Measurements from PubChem BioAssay (NCI).
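Five concentrations, 48 hours, 96-well plates. GI50 marks 50% less growth. TGI marks complete inhibition of growth.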

Legend:
Assay in all cases: growth of human tumour cells (NCI), 48 h
[1] = system: MALME-3M melanoma
[2] = system: CAKI-1 renal
[3] = system: SN12C renal
[4] = system: OVCAR-3 ovarian
[5] = system: SK-MEL-28 melanoma
[6] = system: SR leukemia
[7] = system: HOP-62 NSCLC
[8] = system: MCF7 breast
[9] = system: A549 NSCLC
[10] = system: OVCAR-4 ovarian
[11] = system: IGROV1 ovarian
[12] = system: SK-MEL-2 melanoma
[13] = system: SF-295 CNS
[14] = system: DU-145 prostate
[15] = system: RPMI-8226 leukemia
[16] = system: MDA-MB-231 breast
[17] = system: SW-620 colon
[18] = system: HCT-15 colon
[19] = system: ACHN renal
[20] = system: SF-539 CNS
[21] = system: NCI-H460 lung
[22] = system: U251 CNS
[23] = system: MOLT-4 leukemia
[24] = system: KM12 colon
[25] = system: HOP-92 NSCLC
[26] = system: TK-10 renal
[27] = system: OVCAR-5 ovarian
[28] = system: HL-60(TB) leukemia
[29] = system: HT29 colon
[30] = system: EKVX NSCLC
[31] = system: UO-31 renal
[32] = system: M14 melanoma
[33] = system: HCT-116 colon
[34] = system: SK-MEL-5 melanoma
[35] = system: SF-268 CNS
[36] = system: LOX IMVI melanoma
[37] = system: MDA-MB-435
[38] = system: PC-3 prostate
[39] = system: SK-OV-3 ovarian
[40] = system: OVCAR-8 ovarian
[41] = system: K-562 leukemia
[42] = system: NCI/ADR-RES ovarian
[43] = system: COLO 205 colon
[44] = system: UACC-62 melanoma
[45] = system: HCC-2998 colon
[46] = system: NCI-H522 lung
[47] = system: SNB-75 CNS
[48] = system: HS 578T breast
[49] = system: 786-0 renal
[50] = system: SNB-19 CNS
[51] = system: A498 renal
[52] = system: NCI-H23 lung
[53] = system: UACC-257 melanoma
[54] = system: NCI-H226 lung
[55] = system: RXF 393 renal
[56] = system: BT-549 breast
[57] = system: T-47D breast

O=c1[nH]c2ccccc2n1C1CCN(CCOc2ccccc2)CC1
GI50 [1]: 51.5 µM | TGI [1]: > 100 µM | GI50 [2]: 14.9 µM | TGI [2]: 52.7 µM | GI50 [3]: 34.3 µM | TGI [3]: > 100 µM | GI50 [4]: 14 µM | TGI [4]: > 100 µM | GI50 [5]: 47.9 µM | TGI [5]: > 100 µM | GI50 [6]: 44 µM | TGI [6]: > 100 µM | GI50 [7]: 50.3 µM | TGI [7]: > 100 µM | GI50 [8]: 26.3 µM | TGI [8]: > 100 µM | GI50 [9]: 58.3 µM | TGI [9]: > 100 µM | GI50 [10]: 5.86 µM | TGI [10]: > 100 µM | GI50 [11]: 91.7 µM | TGI [11]: > 100 µM | GI50 [12]: 32.8 µM | TGI [12]: > 100 µM | GI50 [13]: 2.87 µM | TGI [13]: 19.2 µM | GI50 [14]: 15.8 µM | TGI [14]: > 100 µM | GI50 [15]: 9.28 µM | TGI [15]: > 100 µM | GI50 [16]: 27 µM | TGI [16]: > 100 µM | GI50 [17]: 50.1 µM | TGI [17]: > 100 µM | GI50 [18]: 20.6 µM | TGI [18]: > 100 µM | GI50 [19]: 40.4 µM | TGI [19]: > 100 µM | GI50 [20]: 44.9 µM | TGI [20]: > 100 µM | GI50 [21]: 18.7 µM | TGI [21]: > 100 µM | GI50 [22]: 20.5 µM | TGI [22]: > 100 µM | GI50 [23]: 48 µM | TGI [23]: > 100 µM | GI50 [24]: 40.4 µM | TGI [24]: > 100 µM | GI50 [25]: 22.9 µM | TGI [25]: > 100 µM | GI50 [26]: 86.2 µM | TGI [26]: > 100 µM | GI50 [27]: 47.8 µM | TGI [27]: > 100 µM | GI50 [28]: 12.9 µM | TGI [28]: > 100 µM | GI50 [29]: 35.8 µM | TGI [29]: > 100 µM | GI50 [30]: 7.05 µM | TGI [30]: 58.4 µM | GI50 [31]: 34.1 µM | TGI [31]: > 100 µM | GI50 [32]: 25.4 µM | TGI [32]: > 100 µM | GI50 [33]: 10.7 µM | TGI [33]: > 100 µM | GI50 [34]: 16 µM | TGI [34]: 42 µM | GI50 [35]: 39.1 µM | TGI [35]: > 100 µM | GI50 [36]: 15.5 µM | TGI [36]: > 100 µM | GI50 [37]: 6.75 µM | TGI [37]: 72.3 µM | GI50 [38]: 10.7 µM | TGI [38]: > 100 µM | GI50 [39]: 42.9 µM | TGI [39]: > 100 µM | GI50 [40]: 13.3 µM | TGI [40]: > 100 µM | GI50 [41]: 6.85 µM | TGI [41]: > 100 µM | GI50 [42]: 11.5 µM | TGI [42]: > 100 µM | GI50 [43]: 14.5 µM | TGI [43]: 45.8 µM | GI50 [44]: 50.5 µM | TGI [44]: > 100 µM | GI50 [45]: 26.9 µM | TGI [45]: > 100 µM | GI50 [46]: 56.9 µM | TGI [46]: > 100 µM | GI50 [47]: 23.7 µM | TGI [47]: > 100 µM | GI50 [48]: 20.8 µM | TGI [48]: 77.6 µM | GI50 [49]: 43.9 µM | TGI [49]: > 100 µM | GI50 [50]: 47.8 µM | TGI [50]: > 100 µM | GI50 [51]: 17.1 µM | TGI [51]: 99.6 µM | GI50 [52]: 30.5 µM | TGI [52]: > 100 µM | GI50 [53]: 70.7 µM | TGI [53]: > 100 µM | GI50 [54]: 30.1 µM | TGI [54]: > 100 µM | GI50 [55]: 45 µM | TGI [55]: > 100 µM | GI50 [56]: 34.2 µM | TGI [56]: > 100 µM | GI50 [57]: 15.7 µM | TGI [57]: > 100 µM
